Tested on: cells of rat pituitary glands
Experiment: in vitro growth hormone release assay in rat pituitary cell cultures (ir GH measured by radioimmunoassay)
Assay type: cell-based
Conditions: for intrinsic biological activity / potency: in equimolar ratios, side-by-side comparison with synthetic hGRF(1-44)-NH2, incubation 3 to 4 hours, GH release; for intrinsic activity / specific activity: multiple doses factorial design experiments; for intrinsic activity: compared with hGRF(1-44)-NH2; for specific activity: relative to hGRF(1-44)-NH2
Experimental: To determine the effectiveness of the peptide to promote the release of growth hormone, in vitro assays are carried out using synthetic hGRF(1-44)-NH2 in side-by-side comparison with pGRF(1-44)-NH2 and of a GRF Reference Standard having a known effectiveness to promote the release of growth hormone from pituitary cells. The GRF Reference standard is described and defined in Brazeau, et al., Endocrinology, Vol. 110 A538 (1982) and is an amount of a preparation of rat hypothalamic origin that produces a half- maximal response in terms of GH release in a pituitary cell monolayer bioassay. Cultures are used which include cells of rat pituitary glands removed some four to five days previously. Both cultures of a defined standard medium and cultures which are considered optimal for the secretion of growth hormone are used for the comparative testing, in the general manner described in Brazeau, et al. Regulatory Peptides, 1, 255, 1981. Incubation with the substance to be tested is carried out for 3 to 4 hours, and aliquots of the culture medium are removed and processed to measure their contents in inmunoreactive GH(ir GH) by a well- characterized radioimmunoassay.
To determine the effectiveness of the peptide to promote the release of growth hormone, in vito assays are carried out using synthetic hGRF(1―44)-NH2 in side-by-side comparison with equimolar concentrations of bGRF(1―44)-NH2, as set forth hereinbefore in Example II.
To determine the effectiveness of the peptide to promote the release of growth hormone, in vitro assays are carried out using synthetic hGRF(1―44)-NH2 in side-by-side comparison with equimolar concentrations of the synthetic oGRF(1-44)-NH2 of Example V as set forth hereinbefore in Example II.

| SMILES | intrinsic biological activity | potency | intrinsic activity | specific activity |
| --- | --- | --- | --- | --- |
| CC[C@H](C)[C@H](NC(=O)[C@H](C)NC(=O)[C@H](CC(=O)O)NC(=O)[C@H](C)NC(=O)[C@@H](N)Cc1ccc(O)cc1)C(=O)N[C@@H](Cc1ccccc1)C(=O)N[C@H](C(=O)N[C@@H](CC(N)=O)C(=O)N[C@@H](CO)C(=O)N[C@@H](Cc1ccc(O)cc1)C(=O)N[C@@H](CCCNC(=N)N)C(=O)N[C@@H](CCCCN)C(=O)N[C@H](C(=O)N[C@@H](CC(C)C)C(=O)NCC(=O)N[C@@H](CCC(N)=O)C(=O)N[C@@H](CC(C)C)C(=O)N[C@@H](CO)C(=O)N[C@@H](C)C(=O)N[C@@H](CCCNC(=N)N)C(=O)N[C@@H](CCCCN)C(=O)N[C@@H](CC(C)C)C(=O)N[C@@H](CC(C)C)C(=O)N[C@@H](CCC(N)=O)C(=O)N[C@@H](CC(=O)O)C(=O)N[C@H](C(=O)N[C@@H](CCSC)C(=O)N[C@@H](CC(N)=O)C(=O)N[C@@H](CCCNC(=N)N)C(=O)N[C@@H](CCC(N)=O)C(=O)N[C@@H](CCC(N)=O)C(=O)NCC(=O)N[C@@H](CCC(=O)O)C(=O)N[C@@H](CCCNC(=N)N)C(=O)N[C@@H](CC(N)=O)C(=O)N[C@@H](CCC(N)=O)C(=O)N[C@@H](CCC(=O)O)C(=O)N[C@@H](CCC(N)=O)C(=O)NCC(=O)N[C@@H](C)C(=O)N[C@@H](CCCCN)C(=O)N[C@H](C(=O)N[C@@H](CCCNC(=N)N)C(=O)N[C@@H](CC(C)C)C(N)=O)C(C)C)[C@@H](C)CC)C(C)C)[C@@H](C)O [bGRF(1-44)-NH2] | full intrinsic biological activity | close to the same potency | same intrinsic activity | about 70 % of hGRF(1-44)-NH2 |
| CC[C@H](C)[C@H](NC(=O)[C@H](C)NC(=O)[C@H](CC(=O)O)NC(=O)[C@H](C)NC(=O)[C@@H](N)Cc1ccc(O)cc1)C(=O)N[C@@H](Cc1ccccc1)C(=O)N[C@H](C(=O)N[C@@H](CC(N)=O)C(=O)N[C@@H](CO)C(=O)N[C@@H](Cc1ccc(O)cc1)C(=O)N[C@@H](CCCNC(=N)N)C(=O)N[C@@H](CCCCN)C(=O)N[C@H](C(=O)N[C@@H](CC(C)C)C(=O)NCC(=O)N[C@@H](CCC(N)=O)C(=O)N[C@@H](CC(C)C)C(=O)N[C@@H](CO)C(=O)N[C@@H](C)C(=O)N[C@@H](CCCNC(=N)N)C(=O)N[C@@H](CCCCN)C(=O)N[C@@H](CC(C)C)C(=O)N[C@@H](CC(C)C)C(=O)N[C@@H](CCC(N)=O)C(=O)N[C@@H](CC(=O)O)C(=O)N[C@H](C(=O)N[C@@H](CCSC)C(=O)N[C@@H](CC(N)=O)C(=O)N[C@@H](CCCNC(=N)N)C(=O)N[C@@H](CCC(N)=O)C(=O)N[C@@H](CCC(N)=O)C(=O)NCC(=O)N[C@@H](CCC(=O)O)C(=O)N[C@@H](CCCNC(=N)N)C(=O)N[C@@H](CC(N)=O)C(=O)N[C@@H](CCC(N)=O)C(=O)N[C@@H](CCC(=O)O)C(=O)N[C@@H](CCC(N)=O)C(=O)NCC(=O)N[C@@H](C)C(=O)N[C@@H](CCCCN)C(=O)N[C@H](C(=O)N[C@@H](CCCNC(=N)N)C(=O)N[C@@H](CC(C)C)C(N)=O)C(C)C)[C@@H](C)CC)[C@@H](C)CC)[C@@H](C)O [oGRF(1-44), H-Tyr-Ala-Asp-Ala-lle-Phe-Thr-Asn-Ser-Tyr-Arg-Lys-lle-Leu-Gly-Gln-Leu-Ser-Ala-Arg-Lys-Leu-Leu-Gln-Asp- lle-Met-Asn-Arg-Gln-Gln-Gly-Glu-Arg-Asn-Gln-Glu-Gln-Gly-Ala-Lys-Val-Arg-Leu-NH2] | full intrinsic biological activity | close to the same potency | about the same intrinsic activity | about 70 % of hGRF(1-44)-NH2 |
| CC[C@H](C)[C@H](NC(=O)[C@H](C)NC(=O)[C@H](CC(=O)O)NC(=O)[C@H](C)NC(=O)[C@@H](N)Cc1ccc(O)cc1)C(=O)N[C@@H](Cc1ccccc1)C(=O)N[C@H](C(=O)N[C@@H](CC(N)=O)C(=O)N[C@@H](CO)C(=O)N[C@@H](Cc1ccc(O)cc1)C(=O)N[C@@H](CCCNC(=N)N)C(=O)N[C@@H](CCCCN)C(=O)N[C@H](C(=O)N[C@@H](CC(C)C)C(=O)NCC(=O)N[C@@H](CCC(N)=O)C(=O)N[C@@H](CC(C)C)C(=O)N[C@@H](CO)C(=O)N[C@@H](C)C(=O)N[C@@H](CCCNC(=N)N)C(=O)N[C@@H](CCCCN)C(=O)N[C@@H](CC(C)C)C(=O)N[C@@H](CC(C)C)C(=O)N[C@@H](CCC(N)=O)C(=O)N[C@@H](CC(=O)O)C(=O)N[C@H](C(=O)N[C@@H](CCSC)C(=O)N[C@@H](CO)C(=O)N[C@@H](CCCNC(=N)N)C(=O)N[C@@H](CCC(N)=O)C(=O)N[C@@H](CCC(N)=O)C(=O)NCC(=O)N[C@@H](CCC(=O)O)C(=O)N[C@@H](CCCNC(=N)N)C(=O)N[C@@H](CC(N)=O)C(=O)N[C@@H](CCC(N)=O)C(=O)N[C@@H](CCC(=O)O)C(=O)N[C@@H](CCC(N)=O)C(=O)NCC(=O)N[C@@H](C)C(=O)N[C@@H](CCCNC(=N)N)C(=O)N[C@H](C(=O)N[C@@H](CCCNC(=N)N)C(=O)N[C@@H](CC(C)C)C(N)=O)C(C)C)[C@@H](C)CC)C(C)C)[C@@H](C)O [pGRF(1-44)-NH2] | full intrinsic biological activity | close to the same potency |  |  |
